The target in one test is T1, Adenosine receptor A1 (Homo sapiens, UniProt P30542).
T1 sequence (P30542 whole entry): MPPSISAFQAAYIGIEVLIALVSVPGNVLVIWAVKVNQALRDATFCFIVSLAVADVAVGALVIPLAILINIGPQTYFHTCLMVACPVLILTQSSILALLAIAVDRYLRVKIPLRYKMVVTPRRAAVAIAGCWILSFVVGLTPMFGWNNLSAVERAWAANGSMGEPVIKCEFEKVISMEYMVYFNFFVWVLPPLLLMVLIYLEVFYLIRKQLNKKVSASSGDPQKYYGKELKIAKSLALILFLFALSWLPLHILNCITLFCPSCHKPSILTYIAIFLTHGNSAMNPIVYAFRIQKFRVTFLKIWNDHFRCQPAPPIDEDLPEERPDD

Test [1] addresses T2, Type-1 angiotensin II receptor (Homo sapiens, UniProt P30556).
T2 sequence (P30556 whole entry): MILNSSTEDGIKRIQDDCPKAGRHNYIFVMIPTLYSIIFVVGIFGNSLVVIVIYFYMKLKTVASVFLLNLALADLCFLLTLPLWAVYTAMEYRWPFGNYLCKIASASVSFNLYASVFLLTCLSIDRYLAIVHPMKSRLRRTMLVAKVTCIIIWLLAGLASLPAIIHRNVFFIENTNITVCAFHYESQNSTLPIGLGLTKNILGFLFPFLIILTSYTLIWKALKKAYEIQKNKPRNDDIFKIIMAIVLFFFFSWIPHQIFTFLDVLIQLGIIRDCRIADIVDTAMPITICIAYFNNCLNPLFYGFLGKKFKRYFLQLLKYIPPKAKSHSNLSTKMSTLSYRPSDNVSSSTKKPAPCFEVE

The target of another test is Vasopressin V2 receptor (Homo sapiens, UniProt P30518).
The target in test [2] is T3, Muscarinic acetylcholine receptor M2 (Homo sapiens, UniProt P08172).
T3 sequence (P08172 whole entry): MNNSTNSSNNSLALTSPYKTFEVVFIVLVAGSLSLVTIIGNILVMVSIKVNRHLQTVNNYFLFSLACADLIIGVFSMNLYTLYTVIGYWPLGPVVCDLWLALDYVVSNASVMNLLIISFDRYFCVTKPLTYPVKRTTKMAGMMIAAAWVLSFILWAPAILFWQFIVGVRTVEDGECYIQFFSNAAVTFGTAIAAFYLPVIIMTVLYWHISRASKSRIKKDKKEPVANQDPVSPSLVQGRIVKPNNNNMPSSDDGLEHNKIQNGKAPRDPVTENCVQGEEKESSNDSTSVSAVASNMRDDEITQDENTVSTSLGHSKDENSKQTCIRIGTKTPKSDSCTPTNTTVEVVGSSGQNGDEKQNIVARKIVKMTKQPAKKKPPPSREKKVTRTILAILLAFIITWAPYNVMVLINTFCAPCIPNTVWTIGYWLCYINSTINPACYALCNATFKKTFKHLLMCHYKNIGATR
It is filed as functional, cell-based.

A further test has as its target Cannabinoid receptor 1 (Homo sapiens, UniProt P21554). It is filed as functional, cell-based.
A further test deals with T4, Endothelin-1 receptor (Homo sapiens, UniProt P25101).
T4 sequence (P25101 whole entry): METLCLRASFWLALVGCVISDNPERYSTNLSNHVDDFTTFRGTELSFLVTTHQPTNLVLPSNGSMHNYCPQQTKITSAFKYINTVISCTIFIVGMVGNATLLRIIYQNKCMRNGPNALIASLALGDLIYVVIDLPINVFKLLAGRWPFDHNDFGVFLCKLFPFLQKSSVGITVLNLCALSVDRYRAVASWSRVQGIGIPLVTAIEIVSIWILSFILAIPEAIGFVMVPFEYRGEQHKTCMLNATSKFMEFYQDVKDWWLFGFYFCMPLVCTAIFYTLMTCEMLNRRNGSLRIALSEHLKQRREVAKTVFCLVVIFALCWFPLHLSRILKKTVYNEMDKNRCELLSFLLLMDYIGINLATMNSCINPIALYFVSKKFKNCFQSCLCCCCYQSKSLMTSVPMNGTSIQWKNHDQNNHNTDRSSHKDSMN

For test [3], the target named is T5, Gamma-aminobutyric acid receptor subunit alpha-1 (Rattus norvegicus, UniProt P62813).
In test [4] the target is T5, Gamma-aminobutyric acid receptor subunit alpha-1. The class given is functional.
Another test has as its target Histamine H1 receptor (Homo sapiens, UniProt P35367).
The target of test [5] is 5-hydroxytryptamine receptor 2B (Homo sapiens, UniProt P41595). It is filed as functional, cell-based.
In test [6] the target is 3',5'-cyclic-AMP phosphodiesterase 4D (Homo sapiens, UniProt Q08499). The class given is functional.
The next test concerns the target T6, Glucocorticoid receptor (Homo sapiens, UniProt P04150).
T6 sequence (P04150 whole entry): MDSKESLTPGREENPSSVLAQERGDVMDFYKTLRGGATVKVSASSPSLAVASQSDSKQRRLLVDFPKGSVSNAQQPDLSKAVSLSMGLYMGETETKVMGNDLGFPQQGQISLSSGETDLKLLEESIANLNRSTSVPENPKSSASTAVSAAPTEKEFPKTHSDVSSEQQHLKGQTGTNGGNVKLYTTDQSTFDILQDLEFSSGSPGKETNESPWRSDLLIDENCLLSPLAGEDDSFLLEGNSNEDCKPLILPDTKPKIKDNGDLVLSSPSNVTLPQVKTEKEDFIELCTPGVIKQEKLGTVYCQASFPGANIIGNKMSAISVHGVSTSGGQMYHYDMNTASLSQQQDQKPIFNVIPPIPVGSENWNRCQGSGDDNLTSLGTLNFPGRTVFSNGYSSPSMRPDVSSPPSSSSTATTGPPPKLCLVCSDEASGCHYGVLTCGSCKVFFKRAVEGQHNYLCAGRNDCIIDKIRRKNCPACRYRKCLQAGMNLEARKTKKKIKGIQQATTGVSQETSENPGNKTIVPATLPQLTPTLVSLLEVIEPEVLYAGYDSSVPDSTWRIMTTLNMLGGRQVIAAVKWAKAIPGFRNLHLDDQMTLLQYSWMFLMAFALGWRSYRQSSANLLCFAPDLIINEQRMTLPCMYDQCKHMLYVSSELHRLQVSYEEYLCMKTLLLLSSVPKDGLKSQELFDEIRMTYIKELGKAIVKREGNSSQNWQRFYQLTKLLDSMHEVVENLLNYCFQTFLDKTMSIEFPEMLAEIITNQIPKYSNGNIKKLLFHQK

SMILES strings stand for the structures. A value given as a limit tells only on which side of the number the result lay.
Also: assay procedure not described here.

5-hydroxytryptamine receptor 2B, sequence (P41595 whole entry): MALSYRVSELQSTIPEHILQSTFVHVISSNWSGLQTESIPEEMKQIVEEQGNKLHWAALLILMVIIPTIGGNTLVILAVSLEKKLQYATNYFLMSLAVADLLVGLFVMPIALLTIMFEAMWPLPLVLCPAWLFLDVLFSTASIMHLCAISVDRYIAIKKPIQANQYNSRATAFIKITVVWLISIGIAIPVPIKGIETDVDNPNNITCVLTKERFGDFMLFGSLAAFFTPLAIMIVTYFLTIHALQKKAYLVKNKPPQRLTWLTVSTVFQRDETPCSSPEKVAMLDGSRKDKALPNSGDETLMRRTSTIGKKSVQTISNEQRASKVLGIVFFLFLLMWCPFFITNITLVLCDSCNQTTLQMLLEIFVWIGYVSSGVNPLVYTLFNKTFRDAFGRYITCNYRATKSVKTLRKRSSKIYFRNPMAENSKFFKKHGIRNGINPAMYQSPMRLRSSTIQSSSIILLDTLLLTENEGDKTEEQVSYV
T5 sequence (P62813 whole entry): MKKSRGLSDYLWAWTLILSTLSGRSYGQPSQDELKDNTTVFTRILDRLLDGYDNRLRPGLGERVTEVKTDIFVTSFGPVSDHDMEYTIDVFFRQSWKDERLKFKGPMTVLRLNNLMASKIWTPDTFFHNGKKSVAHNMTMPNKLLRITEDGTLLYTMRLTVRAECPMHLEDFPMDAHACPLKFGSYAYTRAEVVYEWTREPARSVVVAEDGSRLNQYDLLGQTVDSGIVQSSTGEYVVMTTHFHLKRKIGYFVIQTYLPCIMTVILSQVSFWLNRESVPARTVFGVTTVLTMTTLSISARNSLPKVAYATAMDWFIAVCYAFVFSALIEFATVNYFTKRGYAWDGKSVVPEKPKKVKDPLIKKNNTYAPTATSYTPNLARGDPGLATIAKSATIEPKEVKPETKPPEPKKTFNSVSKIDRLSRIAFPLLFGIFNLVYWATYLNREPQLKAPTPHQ
Cannabinoid receptor 1, sequence (P21554 whole entry): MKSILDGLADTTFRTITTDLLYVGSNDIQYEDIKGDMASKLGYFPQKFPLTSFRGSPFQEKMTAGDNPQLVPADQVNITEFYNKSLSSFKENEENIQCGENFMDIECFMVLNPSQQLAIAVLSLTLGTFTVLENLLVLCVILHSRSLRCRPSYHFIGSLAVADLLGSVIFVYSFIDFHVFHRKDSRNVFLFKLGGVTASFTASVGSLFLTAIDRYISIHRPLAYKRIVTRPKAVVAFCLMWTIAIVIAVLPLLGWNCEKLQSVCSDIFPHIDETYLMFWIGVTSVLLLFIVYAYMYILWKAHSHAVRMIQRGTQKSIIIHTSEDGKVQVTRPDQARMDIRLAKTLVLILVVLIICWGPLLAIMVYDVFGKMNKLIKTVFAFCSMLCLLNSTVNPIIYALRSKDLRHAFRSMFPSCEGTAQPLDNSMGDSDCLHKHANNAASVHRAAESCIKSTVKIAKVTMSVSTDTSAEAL
Histamine H1 receptor, sequence (P35367 whole entry): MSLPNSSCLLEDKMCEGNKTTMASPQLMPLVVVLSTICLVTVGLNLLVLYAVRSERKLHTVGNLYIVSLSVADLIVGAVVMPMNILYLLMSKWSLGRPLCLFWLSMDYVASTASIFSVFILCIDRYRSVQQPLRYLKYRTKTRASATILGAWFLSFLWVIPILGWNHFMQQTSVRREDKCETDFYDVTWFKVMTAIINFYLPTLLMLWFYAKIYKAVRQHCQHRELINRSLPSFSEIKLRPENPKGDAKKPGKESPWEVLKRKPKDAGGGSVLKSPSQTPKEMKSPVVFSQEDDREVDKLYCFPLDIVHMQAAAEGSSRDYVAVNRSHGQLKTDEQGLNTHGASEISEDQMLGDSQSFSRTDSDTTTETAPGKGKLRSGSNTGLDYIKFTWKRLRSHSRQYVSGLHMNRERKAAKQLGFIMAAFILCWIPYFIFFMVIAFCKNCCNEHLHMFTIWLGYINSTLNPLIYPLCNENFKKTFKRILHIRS
Vasopressin V2 receptor, sequence (P30518 whole entry): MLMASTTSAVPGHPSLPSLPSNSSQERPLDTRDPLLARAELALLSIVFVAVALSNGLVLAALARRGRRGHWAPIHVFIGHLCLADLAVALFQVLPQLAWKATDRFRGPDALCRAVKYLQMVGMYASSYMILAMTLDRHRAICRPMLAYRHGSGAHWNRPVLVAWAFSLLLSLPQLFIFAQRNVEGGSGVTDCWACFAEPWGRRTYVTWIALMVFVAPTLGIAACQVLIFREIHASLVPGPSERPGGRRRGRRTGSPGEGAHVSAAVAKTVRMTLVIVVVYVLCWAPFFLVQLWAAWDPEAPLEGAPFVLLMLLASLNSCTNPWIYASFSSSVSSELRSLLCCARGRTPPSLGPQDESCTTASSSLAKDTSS
3',5'-cyclic-AMP phosphodiesterase 4D, sequence (Q08499 whole entry): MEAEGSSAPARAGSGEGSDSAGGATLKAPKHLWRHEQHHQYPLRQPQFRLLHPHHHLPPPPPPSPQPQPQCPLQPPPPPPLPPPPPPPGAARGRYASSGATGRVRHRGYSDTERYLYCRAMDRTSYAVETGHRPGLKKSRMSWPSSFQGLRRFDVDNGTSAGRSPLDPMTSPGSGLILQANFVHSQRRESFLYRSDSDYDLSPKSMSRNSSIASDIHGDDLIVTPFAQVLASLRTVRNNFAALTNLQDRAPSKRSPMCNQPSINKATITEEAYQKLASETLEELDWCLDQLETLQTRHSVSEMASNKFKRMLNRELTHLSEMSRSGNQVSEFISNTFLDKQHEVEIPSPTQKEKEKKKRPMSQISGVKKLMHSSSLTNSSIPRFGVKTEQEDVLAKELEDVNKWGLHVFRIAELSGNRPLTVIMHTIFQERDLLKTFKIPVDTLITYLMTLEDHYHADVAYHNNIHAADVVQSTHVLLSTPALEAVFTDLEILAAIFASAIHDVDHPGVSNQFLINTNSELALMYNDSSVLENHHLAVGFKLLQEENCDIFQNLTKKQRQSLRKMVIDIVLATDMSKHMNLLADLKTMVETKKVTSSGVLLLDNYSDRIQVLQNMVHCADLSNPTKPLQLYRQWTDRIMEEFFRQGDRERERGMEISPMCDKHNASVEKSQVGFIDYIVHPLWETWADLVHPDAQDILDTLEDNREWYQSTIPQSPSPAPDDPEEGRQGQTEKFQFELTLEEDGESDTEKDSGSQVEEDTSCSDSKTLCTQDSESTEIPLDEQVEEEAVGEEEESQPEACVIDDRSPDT

In general, AC50 refers to the concentration at which the activity in the assay is half-maximal. A high value points to activity only at high concentration. `CCN(CC)C(C)C(=O)c1ccccc1` (configuration not stated) [DIETHYLPROPION]: the AC50 on Adenosine receptor A1 was more than 30 µM; in test [1], more than 30 µM; on Vasopressin V2 receptor it was more than 30 µM; in test [2] it was more than 10 µM; on Cannabinoid receptor 1, more than 30 µM; on Endothelin-1 receptor, more than 30 µM. Moreover, the AC50 is more than 10 µM in test [3]; more than 10 µM in [4]; 12 µM at Histamine H1 receptor; more than 10 µM in test [5]; more than 30 µM in test [6].
Regarding `COc1ccc(-n2nc(C(N)=O)c3c2C(=O)N(c2ccc(N4CCCCC4=O)cc2)CC3)cc1` [APIXABAN], the AC50 (at Adenosine receptor A1; in [1]; at Vasopressin V2 receptor; in test [2]; at Cannabinoid receptor 1; at Endothelin-1 receptor) was more than 30 µM throughout. Further, the concentration at half-maximal activity (AC50) (in test [3]; in [4]; at Histamine H1 receptor; in [5]; in test [6]) was more than 30 µM in each case.
Regarding `COc1ccc2c3c1O[C@H]1C(=O)CC[C@H]4[C@@H](C2)N(C)CC[C@]314` [HYDROCODONE], the AC50 was more than 30 µM at Adenosine receptor A1; more than 30 µM in [1]; more than 30 µM on Vasopressin V2 receptor; more than 10 µM in test [2]; more than 30 µM on Endothelin-1 receptor; more than 10 µM in test [3]. Also, the AC50 in [4] is more than 10 µM; at Histamine H1 receptor, more than 10 µM; in test [5], more than 10 µM; in test [6], 9.5 µM.
For the compound `CN1C2CCCC1CC(NC(=O)c1nn(C)c3ccccc13)C2` (configuration not stated) [GRANISETRON], the AC50 at Adenosine receptor A1 is more than 30 µM; in [1], more than 30 µM; at Vasopressin V2 receptor, more than 30 µM; in test [2] it was more than 10 µM; at Cannabinoid receptor 1 it was more than 30 µM; on Endothelin-1 receptor, more than 30 µM. Besides, the half-maximal activity concentration (AC50) in [3], in test [4], in test [5] and in test [6] was more than 10 µM throughout.
As for `Cc1ccc(-c2ncc(Cl)cc2-c2ccc(S(C)(=O)=O)cc2)cn1` [ETORICOXIB], the AC50 was more than 10 µM on Adenosine receptor A1; more than 10 µM in test [1]; more than 30 µM at Vasopressin V2 receptor; more than 10 µM in test [2]; more than 30 µM at Cannabinoid receptor 1; more than 30 µM on Endothelin-1 receptor. For the same compound, the AC50 in [3] was more than 10 µM; in [4], more than 10 µM; on Histamine H1 receptor, more than 10 µM; in [5] it was more than 10 µM; in test [6], 9 µM.
Consider `CCCCCCOC(=O)NC(=N)c1ccc(NCc2nc3cc(C(=O)N(CCC(=O)OCC)c4ccccn4)ccc3n2C)cc1` [DABIGATRAN ETEXILATE], for which the AC50 at Adenosine receptor A1 was more than 30 µM; in test [1], 7.7 µM; at Vasopressin V2 receptor it was more than 30 µM; in test [2], more than 30 µM; at Cannabinoid receptor 1 it was more than 30 µM; at Endothelin-1 receptor, more than 30 µM. Besides, the AC50 (in test [4]; at Histamine H1 receptor; in test [5]; in [6]) was more than 30 µM in each case.
Take `CC1NCCOC1c1ccccc1` (configuration not stated) [PHENMETRAZINE]: the AC50 on Adenosine receptor A1 is more than 30 µM; in test [1] it was more than 30 µM; on Vasopressin V2 receptor, more than 30 µM; in [2], more than 10 µM; at Cannabinoid receptor 1 it was more than 30 µM; on Endothelin-1 receptor, more than 30 µM. In addition, the AC50 is more than 10 µM in test [3]; more than 10 µM in test [4]; more than 10 µM at Histamine H1 receptor; 23 µM in test [5]; more than 30 µM in test [6].
As to `C[C@@H](Cc1ccccc1)N(C)Cc1ccccc1` [BENZPHETAMINE], the concentration at half-maximal activity (AC50) at Adenosine receptor A1 is more than 10 µM; in test [1], more than 30 µM; on Vasopressin V2 receptor, more than 10 µM; in test [2] it was more than 10 µM; on Cannabinoid receptor 1, more than 30 µM; in test [3], more than 10 µM. In addition, the AC50 in test [4] was more than 10 µM; at Histamine H1 receptor it was more than 10 µM; in [5], more than 10 µM; on Glucocorticoid receptor it was more than 10 µM; in test [6], more than 30 µM.
As for `CCC(NC(C)C)C(O)c1ccc(O)c(O)c1` (configuration not stated) [ISOETHARINE], the AC50 (at Adenosine receptor A1; in test [1]; on Vasopressin V2 receptor; in test [2]; on Endothelin-1 receptor; in test [3]) was more than 30 µM in each case. In addition, the AC50 (in test [4]; on Histamine H1 receptor; in test [5]; in test [6]) was more than 30 µM throughout.
Take `CCCCOC(=O)C(=O)Nc1cccc(-c2nnn[nH]2)c1` [TAZANOLAST]: the AC50 (on Adenosine receptor A1; in test [1]; on Vasopressin V2 receptor; in [2]; on Cannabinoid receptor 1; at Endothelin-1 receptor) was more than 30 µM throughout. In addition, the AC50 (in [3]; in [4]; on Histamine H1 receptor; in test [5]; in test [6]) was more than 30 µM throughout.
Regarding `C=C(c1ccccc1OCc1cccc(Cl)c1)n1ccnc1` [CROCONAZOLE], the half-maximal activity concentration (AC50) on Adenosine receptor A1 is more than 30 µM; in test [1], more than 30 µM; on Vasopressin V2 receptor, more than 30 µM; in test [2] it was more than 10 µM; at Cannabinoid receptor 1, more than 30 µM; in test [3], more than 10 µM. For the same compound, the AC50 was more than 10 µM in [4]; more than 10 µM on Histamine H1 receptor; 8.5 µM in [5]; 3.46 µM on Glucocorticoid receptor; 7.1 µM in test [6].
As for `CC(=O)OCC(=O)[C@@]1(O)CC[C@H]2[C@@H]3CCC4=CC(=O)CC[C@]4(C)[C@@]3(F)[C@@H](O)C[C@@]21C` [FLUDROCORTISONE ACETATE], the AC50 (on Adenosine receptor A1; in test [1]; at Vasopressin V2 receptor; in test [2]; at Cannabinoid receptor 1; on Endothelin-1 receptor) was more than 30 µM each time. For the same compound, the AC50 in [3], in [4], in test [5] and in test [6] was more than 30 µM in each case.

Source of the values: ChEMBL document CHEMBL5291721, “A preclinical secondary pharmacology resource illuminates target-adverse drug reaction associations of marketed drugs” (Nat Commun, 2023).
